Assay results taken from patent US20160083397A1, “PARTHENOLIDE DERIVATIVES AND THEIR MODULATION OF PROCESSES CONTROLLED BY REGULATED TRANSLATION” (THE BOARD OF TRUSTEES OF THE UNIVERSITY OF ARKANSAS, priority 2013, published 2016).
Values joined by “and” are separate entries in the source; they are usually repeats but may differ in a detail not shown here. Equal values may be shown once.

Legend:
U251 = conditions: for GI50: U251, CNS Cancer
OVCAR-3 = conditions: for GI50: OVCAR-3, Ovarian Cancer
T-47D = conditions: for GI50: T-47D, Breast Cancer
HCT-15 = conditions: for GI50: HCT-15, Colon Cancer
UO-31 = conditions: for GI50: UO-31, Renal Cancer
MALME-3M = conditions: for GI50: MALME-3M, Melanoma
MDA-MB-435 = conditions: for GI50: MDA-MB-435, Melanoma
HT29 = conditions: for GI50: HT29, Colon Cancer
SK-MEL-28 = conditions: for GI50: SK-MEL-28, Melanoma
SK-OV-3 = conditions: for GI50: SK-OV-3, Ovarian Cancer
SF-539 = conditions: for GI50: SF-539, CNS Cancer
SF-295 = conditions: for GI50: SF-295, CNS Cancer
NCI-H23 = conditions: for GI50: NCI-H23, Lung Cancer
SNB-75 = conditions: for GI50: SNB-75, CNS Cancer
RPMI-8226 = conditions: for GI50: RPMI-8226, Leukemia
Xenopus oocytes = assay: Xenopus oocyte maturation assay; format: cell-based; conditions: for Xenopus Oocyte Maturation Assay, Without Progesterone: no progesterone, activator = able to induce GVBD in the absence of added progesterone; for Xenopus Oocyte Maturation Assay, With Progesterone: test compound 100 μM, progesterone 2 μg/mL, inhibitor = slowed rate of progesterone-dependent GVBD by 20% or more
Excerpt: An in vivo Xenopus oocyte maturation assay was used to screen the compounds for their ability to modulate the activity of cell cycle control proteins, mRNA translational control proteins, and/or proteins involved in signaling pathways. In this assay, oocyte maturation (or cell cycle progression) is monitored phenotypically using an image capture system. Oocyte maturation is correlated with the appearance of a white spot at the animal pole of the darkly pigmented animal hemisphere of the oocyte. The white spot appears because the germinal vesicle (i.e., the large nucleus of the oocyte) migrates to the animal pole prior to meiotic germinal vesicle breakdown (GVBD).
Immature stage VI Xenopus oocytes were transferred to wells of a flat bottom 96-well plate containing about 178 μL of L15 culture media. The oocytes were transferred using wide mouth 200 μL pipette tips with minimal transfer of culture medium (e.g., about 20 μL). Generally, the oocytes oriented with the pigmented animal hemisphere facing up due to the higher density of the yolk-containing vegetal hemisphere. Incorrectly orientated oocytes were gently manipulated using a drawn-out capillary tube to rotate them into the correct orientation.
Forty-four test compounds were dissolved in DMSO to make 100× stock solutions. The test compounds were added to the appropriate wells at a final concentration of 100 μM (and 1% DMSO). Control oocytes were exposed to 1% DMSO only (generally the first and last wells of a plate contained the untreated, control oocytes). Sixteen hours later, progesterone was added to each well to stimulate progesterone-dependent oocyte maturation. For this, 2 μL of 1000× stock solution (2 mg/mL in ethanol) was added to the appropriate wells to yield a final concentration of 2 μg/mL. The rate of maturation in the control oocytes (i.e., those in the first and last wells) served as an intra-assay control for time taken for progesterone addition across the multi-well plate.
The 96-well plate was imaged from above (i.e., top-down) using a 36-megapixel Nikon D800 SLR camera with an AF Micro Nikkor 60 mm, f/2.8 lens, mounted on a dedicated copy stand (with adjustable flanking light sources). The plate was imaged prior to and after addition of progesterone (i.e., images were taken at regular intervals over a period of 7 hours). The high resolution images were digitally zoomed after capture to analyze the maturation status of oocytes in individual wells of the plate. Test compounds that slowed the rate of progesterone-dependent GVBD by 20% or more were classified as inhibitors (assessed relative to the time 50% of the population of control, vehicle treated oocytes had undergone GVBD (GVBD50)).
To determine whether the test compounds were able to activate oocyte maturation in a progesterone-independent manner, oocytes were incubated in the presence of the test compound (dissolved in DMSO) or DMSO only. The oocytes were imaged at regular intervals for the evidence of GVBD, or subsets of oocytes were removed at predetermined times and the activation status of key cell cycle control proteins (e.g., pMAP kinase, pCcd2, etc.) was analyzed by Western blotting. For example, activation of pMAP kinase is associated with increased phosphorylation whereas activation of pCdc2 is associated with decreased phosphorylation. Compounds were classified as an activator if they were able to induce GVBD in the absence of added progesterone. Further, compounds were classified as accelerators if they accelerated the rate of progesterone-stimulated GVBD, but were unable to induce GVBD in the absence of progesterone. The criteria for test compounds to be considered accelerators is that they must increase the rate of progesterone-dependent GVBD by 20% or more at one dose (assessed relative to the time 50% of the population of control, vehicle treated oocytes had undergone GVBD (GVBD50)).

CAKI-1 = conditions: for GI50: CAKI-1, Renal Cancer
BT-549 = conditions: for GI50: BT-549, Breast Cancer
MDA-MB-231/ATCC = conditions: for GI50: MDA-MB-231/ATCC, Breast Cancer
CCRF-CEM = conditions: for GI50: CCRF-CEM, Leukemia
NCI-H522 = conditions: for GI50: NCI-H522, Lung Cancer
HOP-62 = conditions: for GI50: HOP-62, Lung Cancer

For “13-(2-iodoimidazole)parthenolide [PNR-5-65]”, the CC50 (U251) was greater than 100 µM, the GI50 (U251) was 36.7 µM and the CC50 (OVCAR-3) was 50.8 µM. It also gave a GI50 (OVCAR-3) of 6.85 µM, a CC50 (T-47D) of 54.3 µM and a GI50 (T-47D) of 9.88 µM. For the same substance, the CC50 (HCT-15) was 55.6 µM, the GI50 (HCT-15) was 10.7 µM and the CC50 (UO-31) was 50 µM. It also gave a GI50 (UO-31) of 10.8 µM, a CC50 (MALME-3M) of 62.7 µM and a GI50 (MALME-3M) of 10.9 µM. The CC50 (MDA-MB-435) was 59.5 µM, the GI50 (MDA-MB-435) was 13.8 µM and the CC50 (HT29) was 61.5 µM. The GI50 (HT29) was 17.6 µM, the CC50 (SK-MEL-28) was 73 µM and the GI50 (SK-MEL-28) was 16.1 µM. The CC50 (SK-OV-3) was greater than 100 µM, the GI50 (SK-OV-3) was 47.3 µM and the CC50 (SF-539) was 60.8 µM. For the same substance, the GI50 (SF-539) was 16.7 µM, the CC50 (SF-295) was greater than 100 µM and the GI50 (SF-295) was 32.1 µM. For the same substance, the CC50 (NCI-H23) was greater than 100 µM, the GI50 (NCI-H23) was 23.7 µM and the CC50 (SNB-75) was greater than 100 µM. For the same substance, the GI50 (SNB-75) was 19.3 µM, the CC50 (RPMI-8226) was greater than 100 µM and the GI50 (RPMI-8226) was 17 µM. For the same substance, the “Xenopus Oocyte Maturation Assay, Without Progesterone” value (Xenopus oocytes) was “Not an activator or inhibitor”, the “Xenopus Oocyte Maturation Assay, With Progesterone” value (Xenopus oocytes) was “Not an activator or inhibitor” and the CC50 (CAKI-1) was 49.5 µM. The GI50 (CAKI-1) was 6.61 µM, the CC50 (BT-549) was 55.3 µM and the GI50 (BT-549) was 15.9 µM. For the same substance, the CC50 (MDA-MB-231/ATCC) was 59.6 µM, the GI50 (MDA-MB-231/ATCC) was 16.4 µM and the CC50 (CCRF-CEM) was 79.6 µM. The GI50 (CCRF-CEM) was 6.13 µM, the CC50 (NCI-H522) was 6.34 µM and the GI50 (NCI-H522) was 1.77 µM and 1.71 µM. The CC50 (HOP-62) was greater than 100 µM and the GI50 (HOP-62) was 47.4 µM.
“(E)-13-(3-thiopheno)parthenolide [PNR-5-53]” gave a CC50 (U251) greater than 100 µM, a GI50 (U251) of 21.7 µM and a CC50 (OVCAR-3) greater than 100 µM. The GI50 (OVCAR-3) was 20.5 µM, the CC50 (T-47D) was greater than 100 µM and the GI50 (T-47D) was 29.5 µM. The CC50 (HCT-15) was greater than 100 µM, the GI50 (HCT-15) was 22.6 µM and the CC50 (UO-31) was greater than 100 µM. It also gave a GI50 (UO-31) of 27.3 µM, a CC50 (MALME-3M) greater than 100 µM and a GI50 (MALME-3M) of 22.5 µM. For the same substance, the CC50 (MDA-MB-435) was greater than 100 µM, the GI50 (MDA-MB-435) was 18.3 µM and the CC50 (HT29) was greater than 100 µM. For the same substance, the GI50 (HT29) was 27 µM, the CC50 (SK-MEL-28) was greater than 100 µM and the GI50 (SK-MEL-28) was 29.4 µM. For the same substance, the CC50 (SK-OV-3) was greater than 100 µM, the GI50 (SK-OV-3) was 44.9 µM and the GI50 (SF-539) was 16.1 µM. The CC50 (SF-295) was greater than 100 µM, the GI50 (SF-295) was 28.5 µM and the CC50 (NCI-H23) was greater than 100 µM. For the same substance, the GI50 (NCI-H23) was 23 µM, the CC50 (SNB-75) was greater than 100 µM and the GI50 (SNB-75) was 21.5 µM. The CC50 (RPMI-8226) was greater than 100 µM, the GI50 (RPMI-8226) was 19.7 µM and the “Xenopus Oocyte Maturation Assay, Without Progesterone” value (Xenopus oocytes) was “Not an activator or inhibitor”. For the same substance, the “Xenopus Oocyte Maturation Assay, With Progesterone” value (Xenopus oocytes) was “Not an activator or inhibitor”, the CC50 (CAKI-1) was greater than 100 µM and the GI50 (CAKI-1) was 30.9 µM. It also gave a CC50 (BT-549) of 88.2 µM, a GI50 (BT-549) of 20.1 µM and a CC50 (MDA-MB-231/ATCC) of 81.8 µM. It also gave a GI50 (MDA-MB-231/ATCC) of 16 µM, a CC50 (CCRF-CEM) greater than 100 µM and a GI50 (CCRF-CEM) of 19.1 µM. For the same substance, the CC50 (NCI-H522) was 59.7 µM, the GI50 (NCI-H522) was 5.44 µM and the CC50 (HOP-62) was greater than 100 µM. The GI50 (HOP-62) was 35.8 µM.
